The values that follow come from article PMC8296573, “Synthesis and Biological Evaluation of Fingolimod Derivatives as Antibacterial Agents” (ACS Omega, 2021).

What all share (type): cell-based, Staphylococcus aureus
The subject of one test is S. aureus ATCC 25923. As to the kind of experiment: Antibacterial activity, pre-exposure (planktonic cells and biofilm formation). Particulars: for Initial screening result (active = at least 60% inhibition of planktonic cells and biofilm formation): 50 μM, S. aureus; for MIC: Staphylococcus aureus, ATCC25923, read-out: MIC (S. aureus). Here is the method: (§1) The antimicrobial activity was assessed in a similar way for the initial screening and the dose–response evaluation against different bacterial strains. With the exception of the post-exposure experiment, the compounds were added to the wells along with the bacteria to test the ability of compounds to prevent bacterial growth and biofilm formation (pre-exposure). The compounds were diluted in DMSO and plated directly in 96-well plates before adding the bacterial culture, and plates were incubated for 18 h under aerobic conditions at 37 °C with shaking (220 rpm). The antibacterial activity of the compounds was assessed on planktonic cells and biofilms separately using two different measurements for each: optical density (turbidity) and resazurin reduction (viability) on planktonic cells and resazurin followed by a crystal violet staining assay (total biomass) on biofilms, as described in the following sections.
(§2) The resazurin staining was performed according to the protocol previously optimized with a few modifications.[46] Briefly, the planktonic solution was first transferred into a new 96-well plate and the OD of the planktonic solution was measured using a Varioskan LUX Multimode microplate reader (Thermo Scientific, Vantaa, Finland). Then, 10 μL of a 400 μM resazurin (R7017, Sigma-Aldrich, St. Louis, MO) diluted in phosphate-buffered saline (PBS) (Thermo Fisher Scientific, MA) was added to the wells (for a final resazurin concentration of 20 μM). The plate was incubated in the dark with shaking (220 rpm) for about 3–10 min at room temperature with S. aureus and A. baumannii (until the bacteria controls turned pink) or for 20 min at 37 °C with P. aeruginosa. Fluorescence was measured at λex = 560 nm and λem = 590 nm using the top optics of the Varioskan LUX Multimode microplate reader. The planktonic plate was then discarded. The original challenge plate containing the biofilms was washed once with PBS, and 200 μL of a 20 μM resazurin solution was added to the wells. The plate was incubated in the dark at 37 °C with shaking (220 rpm) for 30 min with S. aureus, 60 min with A. baumannii, and 90 min with P. aeruginosa. Fluorescence was measured as described for the planktonic solution. The biofilms were next treated with crystal violet staining.
(§3) After removing the resazurin solution from the plate, biofilms were fixed with ethanol 100% for 15 min at room temperature. Ethanol was then removed, and the biofilms were left to air-dry completely at RT. Crystal violet, diluted to 1:100 in deionized water from the 2.3% commercial solution (HT90132, Sigma-Aldrich, St. Louis, MO), was added to the wells and, after a 5 min incubation with the dye, the biofilms were washed twice with deionized water and left to air-dry for about 10 min. The dye was solubilized in ethanol 100% for 1 h, and absorbance was measured at 595 nm using a Multiskan Sky microplate spectrophotometer (Thermo Scientific, Vantaa, Finland).

For the next test, the system named is S. aureus ATCC 12598. The test can be described thus: Antibacterial activity, pre-exposure. Particulars: S. aureus ATCC 12598, pre-exposure, 50 µM, ± SD; for inhibition at 50 µM: Staphylococcus aureus, ATCC12598. Here is the method: as §1, §2, §3
In a further test the test system is S. aureus P2. As to the kind of experiment: Antibacterial activity, pre-exposure. Particulars: S. aureus P2, pre-exposure, 50 µM, ± SD; for inhibition at 50 µM: Staphylococcus aureus. The procedure:
as §1, §2, §3

Setting [1] is: read-out: Average inhibition %, biofilms biomass.
[2] abbreviates: read-out: Average inhibition %, planktonic cells turbidity.

Values after ≈ are worked out from the molar mass of the structure shown. Where two headings read alike, the source gives them in different places. Some results are limits rather than exact numbers.

For the molecule `CCCCCCc1ccc(CCC(N)(CO)CO)cc1` [Compound 10, 2-Amino-2-(4-hexylphenethyl)propane-1,3-diol], in the test on S. aureus ATCC 25923, the “Initial screening result (active = at least 60% inhibition of planktonic cells and biofilm formation)” value is “only limited activity against S. aureus biofilms”; the MIC is 100 µM (≈ 27.9 µg/mL).

Turning to `NC(CO)(CO)CCc1ccc(Cc2ccccc2)cc1` [Compound 12, 2-Amino-2-(4-benzylphenethyl)propane-1,3-diol], the MIC in the test with S. aureus ATCC 25923 is more than 100 µM.

On to `COc1ccc(-c2ccc(CCC(N)(CO)CO)cc2)cc1OC` [Compound 13, 2-Amino-2-[2-(3′,4′-dimethoxy-[1,1′-biphenyl]-4-yl)ethyl]propane-1,3-diol], for which the MIC in the test with S. aureus ATCC 25923 is more than 100 µM. `NC(CO)(CO)CCc1ccc(-c2ccc(OCc3ccccc3)cc2)cc1` [Compound 14, 2-Amino-2-[2-[4′-(benzyloxy)-[1,1′-biphenyl]-4-yl]ethyl]propane-1,3-diol]: the MIC in the test with S. aureus ATCC 25923 is more than 100 µM. For `NC(CO)(CO)CCc1ccc(/C=C/Cc2ccccc2)cc1` [Compound 16, (E)-2-Amino-2-[4-(3-phenylprop-1-en-1-yl)phenethyl]propane-1,3-diol], in the test on S. aureus ATCC 25923, the MIC was more than 100 µM. As to `NC(CO)(CO)CCc1ccc(OCc2ccccc2)cc1` [Compound 25, 2-Amino-2-[4-(benzyloxy)phenethyl]propane-1,3-diol], the MIC with S. aureus ATCC 25923 is more than 100 µM. As for `NC(CO)(CO)CCc1ccc(OCc2ccc(C(F)(F)F)cc2)cc1` [Compound 26, 2-Amino-2-[4-[[4-(trifluoromethyl)benzyl]oxy]phenethyl]propane-1,3-diol], the MIC in the test on S. aureus ATCC 25923 was more than 100 µM. On the same count and under the same terms, with `NC(CO)(CO)CCc1ccc(OCc2ccc(C(F)(F)F)nc2)cc1` [Compound 27] the figure was more than 100 µM. Turning to `NC(CO)(CO)CCc1ccc(OCc2ccc3ccc(Cl)cc3n2)cc1` [Compound 28, 2-Amino-2-[4-[(7-chloroquinolin-2-yl)methoxy]phenethyl]propane-1,3-diol], the MIC in the test on S. aureus ATCC 25923 was more than 100 µM. `CCCCc1ccc(COc2ccc(CCC(N)(CO)CO)cc2)cc1` [Compound 29, 2-Amino-2-[4-[(4-butylbenzyl)oxy]phenethyl]propane-1,3-diol]: the MIC with S. aureus ATCC 25923 is more than 100 µM. Consider `NC(CO)(CO)CCc1ccc2ccccc2n1` [Compound 33, 2-Amino-2-[2-(quinolin-2-yl)ethyl]propane-1,3-diol], for which the MIC in the test on S. aureus ATCC 25923 was more than 100 µM.

Regarding `CCCCCCCCc1ccc(CCC(N)(CO)CO)nc1` [Compound 61, 2-Amino-2-[2-(5-octylpyridin-2-yl)ethyl]propane-1,3-diol], in the test with S. aureus ATCC 25923, the “Initial screening result (active = at least 60% inhibition of planktonic cells and biofilm formation)” value was “did not show an inhibitory activity comparable to fingolimod”; the MIC is 100 µM (≈ 30.8 µg/mL). Regarding `CC1(C)S[C@@H]2[C@H](NC(=O)Cc3ccccc3)C(=O)N2[C@H]1C(=O)O` [Penicillin-G, reference compound], the “Average inhibition %, biofilms viability” value with S. aureus ATCC 12598 is 97.5 ± 1.5%; with S. aureus P2 it was 9.5 ± 9.8%. The “Average inhibition %, planktonic cells viability” value in the test on S. aureus ATCC 12598 was found to be 99.7 ± 0%; in the test with S. aureus P2, 14.9 ± 10.3%. The inhibition at 50 µM with S. aureus ATCC 12598 (setting [1]) turned out to be 95.8 ± 1%; in the test with S. aureus ATCC 12598 (setting [2]), 99.7%; with S. aureus P2 (setting [1]) it was 17.4 ± 13.2%; in the test with S. aureus P2 (setting [2]) it was 12.2 ± 14.5%.

The term inhibition denotes the share of the control response that was lost under treatment.
